Data taken from patent US20240269139A1, “COMPOUNDS FOR TARGETED PROTEIN DEGRADATION OF KINASES” (DANA-FARBER CANCER INSTITUTE, INC., priority 2020, published 2024).
Several values for one entry are separate records, joined by “and”; a condition that tells them apart may be missing. Identical values can stand only once. Like-named read-outs stand apart in the source and are kept apart here.

Tests used:
Type in all cases: cell-based
[1] = molecular target: T1, protein kinases (human kinome) (Homo sapiens, UniProt Q9UEE5); settings: STK17A Q9UEE5
T1 sequence (Q9UEE5 1-414): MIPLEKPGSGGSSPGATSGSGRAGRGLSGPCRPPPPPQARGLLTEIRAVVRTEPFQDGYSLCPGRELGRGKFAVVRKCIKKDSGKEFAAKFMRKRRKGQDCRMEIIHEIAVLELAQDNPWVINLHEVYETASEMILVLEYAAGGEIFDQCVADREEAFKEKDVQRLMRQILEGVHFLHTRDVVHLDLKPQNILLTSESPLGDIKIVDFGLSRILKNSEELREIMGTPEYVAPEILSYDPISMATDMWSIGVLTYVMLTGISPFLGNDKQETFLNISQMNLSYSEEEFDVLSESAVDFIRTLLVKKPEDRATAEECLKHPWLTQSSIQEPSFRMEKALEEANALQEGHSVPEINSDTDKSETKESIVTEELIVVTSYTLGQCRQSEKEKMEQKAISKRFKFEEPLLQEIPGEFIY

[2] = molecular target: T2, protein kinases (human kinome) (Homo sapiens, UniProt O94768); settings: for logFC STK17B (O94768): direction down; for logFC: STK17B (O94768)
T2 sequence (O94768 1-372): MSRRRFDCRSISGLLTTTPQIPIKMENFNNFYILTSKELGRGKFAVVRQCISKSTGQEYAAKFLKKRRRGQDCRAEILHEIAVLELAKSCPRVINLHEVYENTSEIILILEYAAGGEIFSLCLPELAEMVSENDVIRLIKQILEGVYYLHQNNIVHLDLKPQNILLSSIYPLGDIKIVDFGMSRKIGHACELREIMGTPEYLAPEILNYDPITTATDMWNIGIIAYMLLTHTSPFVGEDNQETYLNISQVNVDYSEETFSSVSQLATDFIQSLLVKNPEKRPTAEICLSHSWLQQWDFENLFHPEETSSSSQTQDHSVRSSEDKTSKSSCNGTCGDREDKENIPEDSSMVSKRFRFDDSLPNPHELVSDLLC

[3] = molecular target: protein kinases (human kinome) (Homo sapiens, UniProt P42684); settings: for logFC: ABL2 (P42684) protein abundance, degrader vs DMSO, down
protein kinases (human kinome) (Homo sapiens, UniProt P42684), sequence (P42684 whole entry): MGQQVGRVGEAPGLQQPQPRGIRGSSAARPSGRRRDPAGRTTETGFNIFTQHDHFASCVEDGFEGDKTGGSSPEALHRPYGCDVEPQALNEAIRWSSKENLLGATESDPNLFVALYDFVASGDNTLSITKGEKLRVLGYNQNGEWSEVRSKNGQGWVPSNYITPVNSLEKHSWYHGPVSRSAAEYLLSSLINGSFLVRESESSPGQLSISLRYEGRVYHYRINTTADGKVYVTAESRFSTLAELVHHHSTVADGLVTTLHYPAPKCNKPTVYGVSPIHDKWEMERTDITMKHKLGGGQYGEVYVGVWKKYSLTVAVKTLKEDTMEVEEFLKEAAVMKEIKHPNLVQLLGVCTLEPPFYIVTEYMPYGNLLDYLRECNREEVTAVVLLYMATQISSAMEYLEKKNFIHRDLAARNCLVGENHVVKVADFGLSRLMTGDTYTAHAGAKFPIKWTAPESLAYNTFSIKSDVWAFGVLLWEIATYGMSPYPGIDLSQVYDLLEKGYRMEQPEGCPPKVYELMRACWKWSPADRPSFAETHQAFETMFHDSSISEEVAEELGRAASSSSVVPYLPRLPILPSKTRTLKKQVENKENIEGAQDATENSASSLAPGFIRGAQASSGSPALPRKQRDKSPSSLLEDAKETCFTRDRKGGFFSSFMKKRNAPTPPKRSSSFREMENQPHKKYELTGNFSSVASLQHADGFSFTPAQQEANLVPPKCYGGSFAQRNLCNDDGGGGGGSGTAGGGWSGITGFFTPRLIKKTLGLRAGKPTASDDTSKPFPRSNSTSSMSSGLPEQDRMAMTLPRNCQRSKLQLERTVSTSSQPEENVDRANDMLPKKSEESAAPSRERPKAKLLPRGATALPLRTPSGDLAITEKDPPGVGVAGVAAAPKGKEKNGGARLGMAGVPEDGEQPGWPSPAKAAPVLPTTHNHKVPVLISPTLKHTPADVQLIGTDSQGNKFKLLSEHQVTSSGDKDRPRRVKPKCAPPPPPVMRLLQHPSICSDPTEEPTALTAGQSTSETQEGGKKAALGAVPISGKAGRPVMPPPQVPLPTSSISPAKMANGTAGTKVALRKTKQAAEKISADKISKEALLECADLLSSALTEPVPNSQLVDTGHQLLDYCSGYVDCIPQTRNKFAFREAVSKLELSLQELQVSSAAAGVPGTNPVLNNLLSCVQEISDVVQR

[4] = molecular target: protein kinases (human kinome) (Homo sapiens, UniProt Q07912); settings: for logFC TNK2 (Q07912-1): direction down; for logFC TNK2: TNK2 (Q07912-1)
protein kinases (human kinome) (Homo sapiens, UniProt Q07912), sequence (Q07912 whole entry): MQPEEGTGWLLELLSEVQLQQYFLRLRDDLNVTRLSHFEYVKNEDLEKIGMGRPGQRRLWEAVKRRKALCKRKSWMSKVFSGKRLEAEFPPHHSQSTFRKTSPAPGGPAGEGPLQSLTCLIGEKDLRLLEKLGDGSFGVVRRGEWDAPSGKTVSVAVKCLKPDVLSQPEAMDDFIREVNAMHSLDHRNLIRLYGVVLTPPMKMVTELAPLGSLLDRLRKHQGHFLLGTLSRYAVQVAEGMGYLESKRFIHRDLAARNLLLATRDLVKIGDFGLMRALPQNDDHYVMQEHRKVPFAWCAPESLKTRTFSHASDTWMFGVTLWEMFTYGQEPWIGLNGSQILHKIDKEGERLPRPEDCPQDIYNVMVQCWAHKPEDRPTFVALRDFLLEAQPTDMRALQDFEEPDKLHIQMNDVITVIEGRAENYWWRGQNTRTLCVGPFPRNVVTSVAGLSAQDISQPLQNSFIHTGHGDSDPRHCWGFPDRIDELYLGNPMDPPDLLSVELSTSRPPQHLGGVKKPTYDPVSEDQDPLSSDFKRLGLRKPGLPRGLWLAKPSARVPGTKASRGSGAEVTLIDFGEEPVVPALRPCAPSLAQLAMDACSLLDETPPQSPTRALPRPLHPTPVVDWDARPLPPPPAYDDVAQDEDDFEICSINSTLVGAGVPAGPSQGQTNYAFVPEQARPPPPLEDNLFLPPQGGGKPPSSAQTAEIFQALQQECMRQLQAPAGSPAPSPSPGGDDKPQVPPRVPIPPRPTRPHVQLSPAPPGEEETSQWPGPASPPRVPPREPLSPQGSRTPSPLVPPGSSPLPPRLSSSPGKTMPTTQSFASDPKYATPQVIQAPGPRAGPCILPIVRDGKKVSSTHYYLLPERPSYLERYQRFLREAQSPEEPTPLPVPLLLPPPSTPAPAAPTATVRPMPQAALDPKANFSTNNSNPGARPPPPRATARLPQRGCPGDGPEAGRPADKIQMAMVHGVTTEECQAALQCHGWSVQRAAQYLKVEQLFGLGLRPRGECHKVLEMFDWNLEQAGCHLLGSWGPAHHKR

[5] = molecular target: protein kinases (human kinome) (Homo sapiens, UniProt P50613); settings: for logFC: CDK7 (P50613) protein abundance, degrader vs DMSO, down; for logFC CDK7: CDK7 P50613
protein kinases (human kinome) (Homo sapiens, UniProt P50613), sequence (P50613 whole entry): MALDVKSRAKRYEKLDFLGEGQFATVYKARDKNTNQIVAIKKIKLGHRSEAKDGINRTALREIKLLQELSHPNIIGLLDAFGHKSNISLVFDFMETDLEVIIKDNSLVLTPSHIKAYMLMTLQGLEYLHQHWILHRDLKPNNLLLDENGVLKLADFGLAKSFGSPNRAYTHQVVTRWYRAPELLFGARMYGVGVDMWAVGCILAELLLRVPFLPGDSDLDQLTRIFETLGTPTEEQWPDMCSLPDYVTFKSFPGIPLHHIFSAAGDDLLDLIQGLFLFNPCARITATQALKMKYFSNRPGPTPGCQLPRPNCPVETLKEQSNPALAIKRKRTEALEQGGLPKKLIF

[6] = molecular target: protein kinases (human kinome) (Homo sapiens, UniProt Q8TDR2)
protein kinases (human kinome) (Homo sapiens, UniProt Q8TDR2), sequence (Q8TDR2 whole entry): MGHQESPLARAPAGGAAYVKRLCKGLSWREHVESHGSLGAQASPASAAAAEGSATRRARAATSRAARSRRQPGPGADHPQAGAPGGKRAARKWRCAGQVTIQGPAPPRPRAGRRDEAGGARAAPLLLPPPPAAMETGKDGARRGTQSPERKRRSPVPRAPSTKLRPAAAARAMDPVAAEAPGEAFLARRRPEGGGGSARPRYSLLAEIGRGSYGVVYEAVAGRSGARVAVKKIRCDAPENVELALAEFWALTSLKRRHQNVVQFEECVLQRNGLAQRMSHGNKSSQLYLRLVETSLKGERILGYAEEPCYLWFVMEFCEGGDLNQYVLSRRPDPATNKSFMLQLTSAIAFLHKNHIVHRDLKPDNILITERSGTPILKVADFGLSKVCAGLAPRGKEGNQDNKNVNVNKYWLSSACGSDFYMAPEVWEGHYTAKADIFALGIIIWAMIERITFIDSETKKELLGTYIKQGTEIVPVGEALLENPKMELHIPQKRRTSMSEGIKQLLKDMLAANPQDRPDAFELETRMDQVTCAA

O=C(COc1cccc2c1C(=O)N(C1CCC(=O)NC1=O)C2=O)NCCCCCCCN1CCc2cc(Nc3ncc(C4CC4)c(NCCCNC(=O)C4CCC4)n3)ccc2C1 (centres unmarked) [BSJ.04.178]
logFC ([1]; experiment wp134): −0.7107 | logFC STK17A ([1]; experiment wp134): −0.7107 | logFC STK17B (O94768) ([2]; Experiment wp134): −1.604 | logFC ([2]; experiment wp134): −1.604

Cc1ncsc1-c1ccc([C@H](C)NC(=O)[C@@H]2C[C@@H](O)CN2C(=O)[C@@H](NC(=O)CCCCCN2CCc3cc(Nc4ncc(C5CC5)c(NCCCNC(=O)C5CCC5)n4)ccc3C2)C(C)(C)C)cc1 [BSJ.05.026]
logFC ([1]; experiment wp195): −0.5209 | logFC STK17A ([1]; experiment wp195): −0.5209 | logFC STK17B (O94768) ([2]; Experiment wp195): −0.9299 | logFC ([2]; experiment wp195): −0.9299

CS(=O)(=O)Nc1cccc(-c2csc3cnc(Nc4ccc(N5CCN(CCCCCOc6cccc7c6C(=O)N(C6CCC(=O)NC6=O)C7=O)CC5)cc4)nc23)c1 (centres unmarked) [DB0614, N-(3-(2-((4-(4-(5-((2-(2,6-Dioxopiperidin-3-yl)-1,3-dioxoisoindolin-4-yl)oxy)pentyl)piperazin-1-yl)phenyl)amino)thieno[3,2-d]pyrimidin-7-yl)phenyl)methanesulfonamide]
logFC ([1]; experiment wp045): −1.128 | logFC STK17A ([1]; experiment wp045): −1.128 | logFC ([1]; experiment wp117): −0.969 | logFC STK17A ([1]; experiment wp117): −0.969 | logFC STK17B (O94768) ([2]; Experiment wp045): −0.9829 | logFC STK17B (O94768) ([2]; Experiment wp117): −0.7771 | logFC ([2]; experiment wp045): −0.9829 | logFC ([2]; experiment wp117): −0.7771

Cc1ccc(NC(=O)c2cccc(C(F)(F)F)c2)cc1N1Cc2cnc(Nc3ccc(N4CCN(Cc5cn(CCCCCOc6cccc7c6C(=O)N(C6CCC(=O)NC6=O)C7=O)nn5)CC4)nc3)nc2N(C)C1=O (centres unmarked) [DB0646, N-(3-(7-((6-(4-((1-(5-((2-(2,6-Dioxopiperidin-3-yl)-1,3-dioxoisoindolin-4-yl)oxy)pentyl)-1H-1,2,3-triazol-4-yl)methyl)piperazin-1-v)pyridin-3-yl)amino)-1-methyl-2-oxo-1,4-dihydropyrimido[4,5-d]pyrimidin-3(2H)-yl)-4-methylphenyl)-3-(trifluoromethyl)benzamide]
logFC ([3]; 4 hr): −0.5029 | logFC ([3]; 8 hr): −0.7288 | logFC [3]: −0.5941 and −0.5342 and −0.5362 | logFC ABL2 (P42684) ([3]; Experiment wp045): −0.5941 | logFC ABL2 (P42684) ([3]; Experiment wp107): −0.5342 | logFC ABL2 (P42684) ([3]; experiment wp152): −0.5362 | logFC ABL2 (P42684) ([3]; experiment wp160, 4 hr): −0.5029 | logFC ABL2 (P42684) ([3]; experiment wp160, 8 hr): −0.7288

Cc1ccc(NC(=O)c2cccc(C(F)(F)F)c2)cc1N1Cc2cnc(Nc3ccc(N4CCN(CCCOc5cccc6c5C(=O)N(C5CCC(=O)NC5=O)C6=O)CC4)nc3)nc2N(C)C1=O (centres unmarked) [DB0662]
logFC TNK2 (Q07912-1) ([4]; Experiment wp168): −0.6943 | logFC TNK2 ([4]; experiment wp168): −0.6943 | logFC [3]: −1.207 | logFC ABL2 (P42684) ([3]; Experiment wp168): −1.207

Cc1ccc(NC(=O)c2cccc(C(F)(F)F)c2)cc1N1Cc2cnc(Nc3ccc(N4CCN(CCCCCCOc5cccc6c5C(=O)N(C5CCC(=O)NC5=O)C6=O)CC4)nc3)nc2N(C)C1=O (centres unmarked) [DB0663]
logFC [3]: −0.6022 | logFC ABL2 (P42684) ([3]; Experiment wp045): −0.6022

C[C@@H]1C[C@@H](O)c2ncnc(N3CCN(C(=O)[C@H](CNCCCCCCCCCCc4cccc5c4C(=O)N(C4CCC(=O)NC4=O)C5=O)c4ccc(Cl)cc4)CC3)c21 (some centres unmarked) [INY.03.041.01]
logFC ([1]; experiment wp118): −0.4361 | logFC STK17A ([1]; experiment wp118): −0.4361 | logFC STK17A ([1]; experiment wp135, 8 hr): −0.497

Cc1cnc(Nc2ccc(N3CCN(CCCCCCC(=O)N[C@H](C(=O)N4C[C@H](O)C[C@H]4C(=O)N[C@@H](C)c4ccc(-c5scnc5C)cc4)C(C)(C)C)CC3)cc2)nc1Nc1cccc(S(=O)(=O)NC(C)(C)C)c1 [JWG.123]
logFC ([1]; experiment wp195): −0.6451 | logFC STK17A ([1]; experiment wp195): −0.6451 | logFC STK17B (O94768) ([2]; Experiment wp195): −1.872 | logFC ([2]; experiment wp195): −1.872

CCc1cnn2c(N(Cc3ccc(N)nc3)C(=O)CCOCCOCCOCCNC(=O)CNc3cccc4c3C(=O)N(C3CCC(=O)NC3=O)C4=O)cc(N3CCCC[C@H]3CCO)nc12 (some centres unmarked) [MFH.5.115.2]
logFC ([1]; experiment wp076): −0.6277 | logFC STK17A ([1]; experiment wp076): −0.6277

O=C1CCC(N2C(=O)c3cccc(NCCCCCCCCN4CCC(NC(=O)c5[nH]ncc5NC(=O)c5c(Cl)cccc5Cl)CC4)c3C2=O)C(=O)N1 (centres unmarked) [MFH.5.126.1]
logFC ([1]; experiment wp076): −0.8984 | logFC STK17A ([1]; experiment wp076): −0.8984 | logFC STK17B (O94768) ([2]; Experiment wp076): −0.5821 | logFC ([2]; experiment wp076): −0.5821

CS(=O)(=O)Nc1cccc(-c2csc3cnc(Nc4ccc(N5CCN(CCOCCOCCOc6cccc7c6C(=O)N(C6CCC(=O)NC6=O)C7=O)CC5)cc4)nc23)c1 (centres unmarked) [RSS0628]
logFC ([1]; experiment wp045): −1.48 | logFC STK17A ([1]; experiment wp045): −1.48 | logFC STK17B (O94768) ([2]; Experiment wp045): −1.075 | logFC ([2]; experiment wp045): −1.075

Cn1c(=O)c(-c2c(Cl)cccc2Cl)cc2cnc(Nc3ccc(OCCNC(=O)CCCCCCNC(=O)COc4cccc5c4C(=O)N(C4CCC(=O)NC4=O)C5=O)cc3)nc21 (centres unmarked) [SB1.G.192.1]
logFC TNK2 (Q07912-1) ([4]; Experiment wp131): −1.488 | logFC TNK2 ([4]; experiment wp131): −1.488 | logFC [3]: −2.44 | logFC ABL2 (P42684) ([3]; experiment wp071): −2.44

CC(C)S(=O)(=O)c1ccccc1Nc1nc(Nc2ccc(N3CCN(CCOCCNC(=O)CNc4ccc5c(c4)C(=O)N(C4CCC(=O)NC4=O)C5=O)CC3)cc2)ncc1Cl (centres unmarked) [SK.3.93]
logFC [5]: −0.8057 | logFC CDK7 ([5]; experiment wp016): −0.8057 | logFC [3]: −0.5278 | logFC ABL2 (P42684) ([3]; experiment wp016): −0.5278

CC(C)S(=O)(=O)c1ccccc1Nc1nc(Nc2ccc(N3CCN(CCOCCOCCC(=O)NCCNc4cccc5c4CN(C4CCC(=O)NC4=O)C5=O)CC3)cc2)ncc1Cl (centres unmarked) [TL13.97]
logFC TNK2 (Q07912-1) ([4]; Experiment wp137): −1.971 | logFC TNK2 ([4]; experiment wp137): −1.971 | logFC [5]: −1.05 | logFC CDK7 ([5]; experiment wp137): −1.05 | logFC [3]: −0.5116 | logFC ABL2 (P42684) ([3]; experiment wp137): −0.5116

NC(=O)c1c(F)cccc1Nc1nc(Nc2ccc(S(=O)(=O)NCCOCCOCCOCCOCCNc3cccc4c3C(=O)N(C3CCC(=O)NC3=O)C4=O)cc2)ncc1Br (centres unmarked) [TMX.02.138]
logFC [5]: −0.5239 | logFC CDK7 ([5]; experiment wp146): −0.5239

Cc1cc(Nc2ncc(Br)c(Nc3cccc(F)c3C(N)=O)n2)ccc1S(=O)(=O)NCCOCCOCCOCCOCCNc1cccc2c1C(=O)N(C1CCC(=O)NC1=O)C2=O (centres unmarked) [TMX.02.174]
logFC STK35 ([6]; Accession Q8TDR2, experiment wp146, direction down): −0.5631 | logFC STK35 ([6]; STK35 (Q8TDR2), experiment wp146): −0.5631 | logFC [5]: −0.584 | logFC CDK7 ([5]; experiment wp146): −0.584

Nc1ncc(-c2ccc(S(=O)(=O)N(CCCNC(=O)CCOCCOCCOCCOCCOCCNc3cccc4c3C(=O)N(C3CCC(=O)NC3=O)C4=O)C3CC3)cc2)cc1-c1ccc2c(c1)CCNC2=O (centres unmarked) [WH.10417.099]
logFC STK17B (O94768) ([2]; Experiment wp056): −1.507 | logFC STK17B (O94768) ([2]; Experiment wp103): −1.292 | logFC STK17B (O94768) ([2]; Experiment wp105): −0.7924 | logFC STK17B (O94768) ([2]; Experiment wp107): −1.472 | logFC STK17B (O94768) ([2]; Experiment wp172): −1.234 | logFC ([2]; experiment wp056): −1.507 | logFC ([2]; experiment wp103): −1.292 | logFC ([2]; experiment wp105): −0.7924 | logFC ([2]; experiment wp107): −1.472 | logFC ([2]; experiment wp172): −1.234 | logFC STK35 ([6]; Accession Q8TDR2, experiment wp056, direction down): −2.073 | logFC STK35 ([6]; Accession Q8TDR2, experiment wp103, direction down): −1.239 | logFC STK35 ([6]; Accession Q8TDR2, experiment wp107, direction down): −1.954 | logFC STK35 ([6]; STK35 (Q8TDR2), experiment wp056): −2.073 | logFC STK35 ([6]; STK35 (Q8TDR2), experiment wp103): −1.239 | logFC STK35 ([6]; STK35 (Q8TDR2), experiment wp107): −1.954
